Data set [1] addresses Voltage-dependent L-type calcium channel subunit alpha-1C (Homo sapiens, UniProt Q13936). Kind of data set: Selectivity interaction (CEREP selectivity screen) EUB0000318b CACNA1C. Conditions: at 10 µM.
The target of data set [2] is T1, 4-aminobutyrate aminotransferase, mitochondrial (Homo sapiens, UniProt P80404). Put plainly: (§1) Selectivity interaction (GPCR panel (PDSP screen)) EUB0000318b ABAT.
For data set [3], the target named is T1, 4-aminobutyrate aminotransferase, mitochondrial. Described as §1. Conditions: at 10 µM.
Data set [4] deals with 5-hydroxytryptamine receptor 2A (Homo sapiens, UniProt P28223). Kind of data set: Selectivity interaction (CEREP selectivity screen) EUB0000318b HTR2A. Conditions: at 10 µM.
Chain of 5-hydroxytryptamine receptor 2A (P28223 whole entry): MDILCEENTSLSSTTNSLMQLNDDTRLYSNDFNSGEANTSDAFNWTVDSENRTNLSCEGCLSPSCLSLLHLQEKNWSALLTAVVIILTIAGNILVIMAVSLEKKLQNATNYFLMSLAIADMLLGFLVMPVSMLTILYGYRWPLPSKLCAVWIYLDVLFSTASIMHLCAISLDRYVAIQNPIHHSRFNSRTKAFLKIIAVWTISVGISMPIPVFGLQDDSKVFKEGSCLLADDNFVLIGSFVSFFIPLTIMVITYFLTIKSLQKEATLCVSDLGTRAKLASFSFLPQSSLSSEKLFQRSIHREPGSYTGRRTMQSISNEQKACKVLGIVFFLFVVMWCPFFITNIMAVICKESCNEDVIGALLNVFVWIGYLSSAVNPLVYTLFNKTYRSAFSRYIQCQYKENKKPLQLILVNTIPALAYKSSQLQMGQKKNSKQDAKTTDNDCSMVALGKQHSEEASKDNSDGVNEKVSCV
Data set [5] deals with T2, Mitogen-activated protein kinase kinase kinase 5 (Homo sapiens) (UniProt Q99683).
T2 sequence (whole entry): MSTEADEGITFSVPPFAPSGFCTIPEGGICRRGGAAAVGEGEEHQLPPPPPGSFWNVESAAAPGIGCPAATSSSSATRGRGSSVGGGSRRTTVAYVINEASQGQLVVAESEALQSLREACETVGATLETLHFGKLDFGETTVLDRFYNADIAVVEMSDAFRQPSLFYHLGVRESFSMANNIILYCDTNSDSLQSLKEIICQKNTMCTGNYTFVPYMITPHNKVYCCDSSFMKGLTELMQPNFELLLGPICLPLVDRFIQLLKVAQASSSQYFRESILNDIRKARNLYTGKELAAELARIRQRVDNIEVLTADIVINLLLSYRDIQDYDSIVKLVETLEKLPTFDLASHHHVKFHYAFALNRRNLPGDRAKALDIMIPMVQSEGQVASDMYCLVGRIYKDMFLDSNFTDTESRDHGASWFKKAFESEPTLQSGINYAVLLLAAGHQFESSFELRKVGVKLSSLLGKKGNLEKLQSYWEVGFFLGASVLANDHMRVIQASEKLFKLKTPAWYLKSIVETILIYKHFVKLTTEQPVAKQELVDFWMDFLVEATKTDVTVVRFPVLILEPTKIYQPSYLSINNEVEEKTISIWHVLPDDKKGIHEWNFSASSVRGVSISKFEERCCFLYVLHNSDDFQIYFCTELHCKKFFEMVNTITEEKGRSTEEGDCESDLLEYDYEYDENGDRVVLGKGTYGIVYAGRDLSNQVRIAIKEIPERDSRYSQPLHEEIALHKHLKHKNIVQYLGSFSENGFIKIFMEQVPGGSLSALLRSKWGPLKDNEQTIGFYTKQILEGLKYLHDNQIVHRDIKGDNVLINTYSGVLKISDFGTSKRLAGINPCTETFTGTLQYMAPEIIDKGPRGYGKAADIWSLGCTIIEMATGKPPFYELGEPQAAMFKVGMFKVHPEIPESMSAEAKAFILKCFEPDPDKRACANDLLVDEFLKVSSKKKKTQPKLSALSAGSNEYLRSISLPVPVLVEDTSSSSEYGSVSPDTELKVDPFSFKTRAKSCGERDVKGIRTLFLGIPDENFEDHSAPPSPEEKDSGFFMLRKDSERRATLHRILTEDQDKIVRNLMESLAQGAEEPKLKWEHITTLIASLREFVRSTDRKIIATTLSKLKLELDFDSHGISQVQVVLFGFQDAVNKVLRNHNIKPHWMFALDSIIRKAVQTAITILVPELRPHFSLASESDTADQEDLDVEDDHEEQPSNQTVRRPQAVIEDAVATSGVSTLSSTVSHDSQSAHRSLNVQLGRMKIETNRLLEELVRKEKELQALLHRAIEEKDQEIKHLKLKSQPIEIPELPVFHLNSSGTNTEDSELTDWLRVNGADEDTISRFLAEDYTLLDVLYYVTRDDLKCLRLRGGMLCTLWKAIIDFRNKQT
Kind of data set: Selectivity interaction (KinomeScan (DiscoverX)) EUB0000318b MAP3K5. Conditions: at 1 µM.

Data set [6] deals with T3, Serine/threonine-protein kinase Nek1 (Homo sapiens) (UniProt Q96PY6).
T3 sequence (whole entry): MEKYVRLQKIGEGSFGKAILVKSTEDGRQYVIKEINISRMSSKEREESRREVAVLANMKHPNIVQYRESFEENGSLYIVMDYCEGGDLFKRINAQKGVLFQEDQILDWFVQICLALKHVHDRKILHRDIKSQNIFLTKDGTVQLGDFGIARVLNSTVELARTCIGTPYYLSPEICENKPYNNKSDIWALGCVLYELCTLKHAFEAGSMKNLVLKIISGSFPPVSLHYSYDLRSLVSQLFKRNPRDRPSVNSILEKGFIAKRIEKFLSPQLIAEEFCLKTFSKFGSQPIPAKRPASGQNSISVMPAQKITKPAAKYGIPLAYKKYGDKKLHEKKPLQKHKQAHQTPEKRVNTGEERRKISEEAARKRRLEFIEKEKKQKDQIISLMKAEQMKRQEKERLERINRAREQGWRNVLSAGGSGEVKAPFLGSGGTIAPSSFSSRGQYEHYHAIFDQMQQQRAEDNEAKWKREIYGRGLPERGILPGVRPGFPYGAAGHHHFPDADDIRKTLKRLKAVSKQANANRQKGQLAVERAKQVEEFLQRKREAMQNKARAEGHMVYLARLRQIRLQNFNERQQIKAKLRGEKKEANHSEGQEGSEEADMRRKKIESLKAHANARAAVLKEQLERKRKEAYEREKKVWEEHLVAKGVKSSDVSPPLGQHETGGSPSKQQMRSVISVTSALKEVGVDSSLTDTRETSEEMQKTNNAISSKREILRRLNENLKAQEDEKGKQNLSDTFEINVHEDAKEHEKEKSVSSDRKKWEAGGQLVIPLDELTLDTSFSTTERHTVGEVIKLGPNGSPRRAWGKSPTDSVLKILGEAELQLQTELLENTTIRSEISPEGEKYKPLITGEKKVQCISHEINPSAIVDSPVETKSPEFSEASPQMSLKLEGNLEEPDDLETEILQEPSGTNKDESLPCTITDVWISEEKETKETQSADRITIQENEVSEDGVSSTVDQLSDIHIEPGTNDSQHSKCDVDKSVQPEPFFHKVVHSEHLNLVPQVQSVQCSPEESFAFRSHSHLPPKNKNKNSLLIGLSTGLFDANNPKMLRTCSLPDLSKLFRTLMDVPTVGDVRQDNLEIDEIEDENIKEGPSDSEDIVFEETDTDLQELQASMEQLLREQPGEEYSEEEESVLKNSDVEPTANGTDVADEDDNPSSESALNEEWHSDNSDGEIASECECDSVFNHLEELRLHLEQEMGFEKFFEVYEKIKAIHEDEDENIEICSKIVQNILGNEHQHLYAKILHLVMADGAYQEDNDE
Kind of data set: Selectivity interaction (KinomeScan (DiscoverX)) EUB0000318b NEK1. Conditions: at 1 µM.

The target of data set [7] is Sodium channel regulatory subunit beta-1 (Homo sapiens) (UniProt Q07699). Kind of data set: Selectivity interaction (CEREP selectivity screen) EUB0000318b SCN1B. Conditions: at 10 µM.
Chain of Sodium channel regulatory subunit beta-1 (Homo sapiens) (Q07699 whole entry): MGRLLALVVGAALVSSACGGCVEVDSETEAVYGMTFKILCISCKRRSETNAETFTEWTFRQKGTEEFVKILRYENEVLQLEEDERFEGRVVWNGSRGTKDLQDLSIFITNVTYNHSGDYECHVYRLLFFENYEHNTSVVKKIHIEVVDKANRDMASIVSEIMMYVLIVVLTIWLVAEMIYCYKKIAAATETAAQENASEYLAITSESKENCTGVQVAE
For data set [8], the target named is Sigma non-opioid intracellular receptor 1 (Homo sapiens) (UniProt Q99720). Put plainly: Selectivity interaction (GPCR panel (PDSP screen)) EUB0000318b SIGMAR1. Conditions: at 10 µM.
Chain of Sigma non-opioid intracellular receptor 1 (Homo sapiens) (Q99720 whole entry): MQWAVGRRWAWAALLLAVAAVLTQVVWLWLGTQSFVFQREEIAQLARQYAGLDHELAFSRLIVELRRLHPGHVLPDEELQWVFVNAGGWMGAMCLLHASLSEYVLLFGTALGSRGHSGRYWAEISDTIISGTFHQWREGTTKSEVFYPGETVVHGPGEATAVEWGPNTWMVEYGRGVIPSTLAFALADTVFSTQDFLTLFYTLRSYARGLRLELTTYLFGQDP
Data set [9] addresses Sodium-dependent noradrenaline transporter (Homo sapiens, UniProt P23975). Put plainly: Selectivity interaction (CEREP selectivity screen) EUB0000318b SLC6A2. Conditions: at 10 µM.

pKi: −log10 of the molar value.

The record followed here is ChEMBL document CHEMBL5465560, “Selectivity Literature for EUbOPEN Chemogenomic Library” (2024).

Usually pKi stands for the negative decadic logarithm of the Ki, by convention in mol/L. Low values mean a high Ki, high ones a low Ki.

T1 sequence (P80404 whole entry): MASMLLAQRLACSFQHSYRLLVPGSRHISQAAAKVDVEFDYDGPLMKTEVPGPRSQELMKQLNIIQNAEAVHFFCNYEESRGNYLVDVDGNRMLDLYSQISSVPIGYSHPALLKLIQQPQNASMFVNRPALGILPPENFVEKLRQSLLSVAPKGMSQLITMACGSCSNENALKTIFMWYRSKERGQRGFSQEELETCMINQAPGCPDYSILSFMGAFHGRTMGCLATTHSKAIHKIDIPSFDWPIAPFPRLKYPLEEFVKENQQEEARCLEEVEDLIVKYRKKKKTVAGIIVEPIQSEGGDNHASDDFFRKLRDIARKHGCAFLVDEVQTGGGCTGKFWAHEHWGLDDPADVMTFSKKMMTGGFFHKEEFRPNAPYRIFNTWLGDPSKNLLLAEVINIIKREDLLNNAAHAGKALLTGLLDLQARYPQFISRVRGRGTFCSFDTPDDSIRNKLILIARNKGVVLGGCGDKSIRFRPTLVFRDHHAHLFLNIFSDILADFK
Chain of Sodium-dependent noradrenaline transporter (P23975 whole entry): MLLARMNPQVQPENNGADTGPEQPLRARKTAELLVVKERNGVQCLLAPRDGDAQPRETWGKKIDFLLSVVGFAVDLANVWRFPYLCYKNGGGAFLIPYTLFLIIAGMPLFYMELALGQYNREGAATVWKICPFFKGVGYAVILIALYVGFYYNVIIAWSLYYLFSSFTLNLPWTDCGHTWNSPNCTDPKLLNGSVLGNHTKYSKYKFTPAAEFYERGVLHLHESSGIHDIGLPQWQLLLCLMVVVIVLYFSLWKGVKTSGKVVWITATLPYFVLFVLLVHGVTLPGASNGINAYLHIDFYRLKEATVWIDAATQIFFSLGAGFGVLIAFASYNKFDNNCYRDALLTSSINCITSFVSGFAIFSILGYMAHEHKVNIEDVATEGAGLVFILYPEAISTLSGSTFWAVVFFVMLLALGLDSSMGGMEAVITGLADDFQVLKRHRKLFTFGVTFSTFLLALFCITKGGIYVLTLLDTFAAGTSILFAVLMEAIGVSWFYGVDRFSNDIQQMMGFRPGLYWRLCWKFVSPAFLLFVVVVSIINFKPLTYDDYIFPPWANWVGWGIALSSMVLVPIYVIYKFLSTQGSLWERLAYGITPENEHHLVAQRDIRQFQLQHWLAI
Chain of Voltage-dependent L-type calcium channel subunit alpha-1C (Q13936 whole entry): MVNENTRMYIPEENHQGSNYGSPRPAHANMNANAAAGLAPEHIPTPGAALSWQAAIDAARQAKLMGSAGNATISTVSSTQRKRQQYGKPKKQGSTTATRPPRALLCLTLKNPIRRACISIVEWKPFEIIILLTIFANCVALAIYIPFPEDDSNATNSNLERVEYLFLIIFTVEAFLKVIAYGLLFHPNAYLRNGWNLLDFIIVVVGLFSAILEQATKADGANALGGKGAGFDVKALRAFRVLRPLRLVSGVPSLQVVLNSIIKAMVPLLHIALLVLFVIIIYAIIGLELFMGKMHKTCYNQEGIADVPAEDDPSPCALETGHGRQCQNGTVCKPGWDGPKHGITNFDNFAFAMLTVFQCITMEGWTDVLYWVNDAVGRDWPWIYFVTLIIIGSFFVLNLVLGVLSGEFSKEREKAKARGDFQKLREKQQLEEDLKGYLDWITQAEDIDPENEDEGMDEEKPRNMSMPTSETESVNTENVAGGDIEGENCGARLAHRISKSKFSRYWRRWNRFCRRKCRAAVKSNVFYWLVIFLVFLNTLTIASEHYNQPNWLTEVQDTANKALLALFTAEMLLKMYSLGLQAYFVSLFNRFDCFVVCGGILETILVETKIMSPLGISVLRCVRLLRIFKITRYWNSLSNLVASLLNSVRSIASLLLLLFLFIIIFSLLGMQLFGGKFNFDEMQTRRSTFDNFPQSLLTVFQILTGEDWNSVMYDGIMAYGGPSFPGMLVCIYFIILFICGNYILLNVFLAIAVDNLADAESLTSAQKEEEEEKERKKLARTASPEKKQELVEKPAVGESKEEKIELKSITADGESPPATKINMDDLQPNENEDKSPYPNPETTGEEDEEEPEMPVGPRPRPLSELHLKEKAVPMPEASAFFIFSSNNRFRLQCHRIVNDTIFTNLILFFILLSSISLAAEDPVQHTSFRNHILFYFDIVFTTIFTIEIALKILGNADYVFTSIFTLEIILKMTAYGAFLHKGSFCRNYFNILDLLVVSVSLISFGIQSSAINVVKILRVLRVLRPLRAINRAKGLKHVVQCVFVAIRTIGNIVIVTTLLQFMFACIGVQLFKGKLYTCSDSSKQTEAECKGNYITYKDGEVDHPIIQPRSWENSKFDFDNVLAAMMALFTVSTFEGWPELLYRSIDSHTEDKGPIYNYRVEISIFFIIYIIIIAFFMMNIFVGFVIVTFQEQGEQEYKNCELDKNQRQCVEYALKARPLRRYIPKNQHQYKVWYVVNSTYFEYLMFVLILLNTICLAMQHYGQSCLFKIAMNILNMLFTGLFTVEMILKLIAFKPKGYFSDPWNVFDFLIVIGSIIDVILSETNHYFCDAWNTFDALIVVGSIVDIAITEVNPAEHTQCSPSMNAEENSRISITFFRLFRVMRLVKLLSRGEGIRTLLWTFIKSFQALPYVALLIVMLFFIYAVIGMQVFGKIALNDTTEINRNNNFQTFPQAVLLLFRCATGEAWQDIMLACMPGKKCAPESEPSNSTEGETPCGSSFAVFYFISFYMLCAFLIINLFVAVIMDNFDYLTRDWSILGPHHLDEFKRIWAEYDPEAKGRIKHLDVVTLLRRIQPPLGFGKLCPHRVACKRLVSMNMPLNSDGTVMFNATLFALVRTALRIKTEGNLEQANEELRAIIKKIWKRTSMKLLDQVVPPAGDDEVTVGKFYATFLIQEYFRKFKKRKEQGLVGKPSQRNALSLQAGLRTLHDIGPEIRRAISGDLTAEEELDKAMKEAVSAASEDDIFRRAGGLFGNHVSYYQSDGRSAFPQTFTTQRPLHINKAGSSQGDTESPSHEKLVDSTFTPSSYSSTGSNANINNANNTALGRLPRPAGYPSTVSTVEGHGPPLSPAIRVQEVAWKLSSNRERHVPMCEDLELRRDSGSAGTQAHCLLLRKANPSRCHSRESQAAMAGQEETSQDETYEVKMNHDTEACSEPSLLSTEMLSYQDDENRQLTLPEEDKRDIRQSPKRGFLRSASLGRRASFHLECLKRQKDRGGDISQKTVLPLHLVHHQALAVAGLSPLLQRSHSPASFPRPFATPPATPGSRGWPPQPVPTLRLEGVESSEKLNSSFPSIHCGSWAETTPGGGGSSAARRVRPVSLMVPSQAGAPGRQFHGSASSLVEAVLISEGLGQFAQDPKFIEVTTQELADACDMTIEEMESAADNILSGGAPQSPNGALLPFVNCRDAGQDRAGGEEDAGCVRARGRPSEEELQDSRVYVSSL

On to `O=C(NC[C@@H]1[C@H]2CN(C(=O)OCc3cc(C(F)(F)F)cc(C(F)(F)F)c3)C[C@@H]12)c1ccc2[nH]nnc2c1` [BI 2545], for which the “% of inhibition” value was 80% in data set [1]; 63.7% in [3]; 55% in [4]; 66% in data set [7]; 51.2% in [8]; 61% in data set [9]. In data set [2], this molecule had a pKi of 5.59. Also, the % of control was 13% in [5] and 44% in data set [6].
